Source: PubChem BioAssay AID1845211 (Molecular Pharmacology Branch, DTP, NCI, 2023)
Values joined by “and” are separate entries in the source; they are usually repeats but may differ in a detail not shown here. Identical values can stand only once.

System: NCI-H322M multicellular tumor spheroids, viability (% test/control)
Assay: Anticancer human tumor NCI-H322M cell line growth inhibition;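 on viability, T/C: spheroids exposed to compound for seven days before readout; 100% = DMSO vehicle control wells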
Details: for viability, T/C: stronger effect = lower value
From the text: Multicellular complex tumor spheroid response to DNA repair inhibitors in combination with DNA-damaging drugs
This study explores the anticancer activities of DNA-damaging drugs and inhibitors of DNA damage repair, both as single agents and in combinations. Complex tumor spheroids comprised of malignant cells, endothelial cells and mesenchymal stem cells served as an in vitro model for human solid tumors. This model system incorporates physiologically relevant features and patient-derived or established malignant cell lines with clinically relevant genetic alterations from many tumor types. Twenty-six patient-derived or established malignant cell lines were evaluated representing sarcoma, melanoma, small cell lung cancer (SCLC), non-small cell lung cancer (NSCLC), as well as bladder, ovarian and pancreatic cancers. The concentration ranges selected for each drug and investigational agent were based upon clinically achievable concentrations if the clinical Cmax of the agent was known.
Compounds. The drugs and compounds olaparib (NSC753686), talazoparib (NSC767125), berzosertib (NSC777718), elimusertib (NSC800525), nedisertib (NSC802822), VX-984 (NSC792969), AZD-1390 (NSC803789), temozolomide (NSC362856), topotecan (NSC609699), trabectedin (NSC813783), staurosporine (NSC755774), and gemcitabine (NSC613327) were obtained from the National Cancer Institute (NCI) Developmental Therapeutics Program Chemical Repository. The FDA-approved anticancer drug set is available from the Developmental Therapeutics Program at https://dtp.cancer.gov/organization/dscb/obtaining/available_plates.htm. […] The stock solutions were prepared in dimethyl sulfoxide (DMSO, Sigma-Aldrich, St. Louis, MO, cat. D2650) at 400-fold the tested concentration and stored at -70 degrees C. Prior to their use, the stock solutions were diluted in fresh medium and the final DMSO concentration in the assay was 0.25% (v/v). All drugs and investigational agents were tested over a range starting from a high concentration at or near the clinical Cmax and decreasing in half-log increments. If the clinical Cmax for an agent had not been determined, the highest concentration tested was 10 microM.
Cell Lines. The patient-derived cancer cell (PDC) lines: 156681-154-R-J1-PDC, 283228-195-R-J1-PDC, 287954-098-R-J1-PDC, 292921-168-R-J2-PDC, 349418-098-R-PDC, 425362-245-T-J1-PDC, 556581-035-R-J1-PDC, and BL0293-F563-PDC were received from the NCI Patient-Derived Models Repository (PDMR, https://pdmr.cancer.gov). The established cell lines HS-SY-2 (RRID:CVCL_8719), MPNST, and SYO-1 (RRID:CVCL_7146) were obtained from the Sloan Kettering Institute. The alveolar soft parts sarcoma cell line ASPS-1 (RRID:CVCL_S738) was established at the NCI and grown from internal seed stocks. The following established cell lines were purchased from the American Type Culture Collection (ATCC, Manassas, VA): G-401 (ATCC, cat. CRL-1441, RRID:CVCL_0270), SW982 (ATCC, cat. HTB-93, RRID:CVCL_1734), VA-ES-BJ (ATCC, cat. CRL-2138, RRID:CVCL_1785), NCI-H719 (ATCC, cat. CRL-5837, RRID:CVCL_1582), NCI-H196 (ATCC, cat. CRL-5823, RRID:CVCL_1509), NCI-H841 (ATCC, cat. CRL-5845, RRID:CVCL_1595), NCI-H1618 (ATCC, cat. CRL-5879, RRID:CVCL_1480), NCI-H1876 (ATCC, cat. CRL-5902, RRID:CVCL_1503), DMS 114 (ATCC, cat. CRL-2066; RRID:CVCL_1174), NCI-H211 (ATCC, cat. CRL-5824; RRID:CVCL_1529), and SW 1271 (ATCC, cat. CRL-2177, RRID:CVCL_1716). The small cell lung cancer cell line COR-L88 was purchased from Sigma-Aldrich (cat. 92031917-1VL, RRID:CVCL_1141). The non-small cell lung cancer cell lines NCI-H226 (RRID:CVCL_1544) and NCI-H322M (RRID:CVCL_1557) were established at the NCI and grown from internal seed stocks. Pooled donor human umbilical vein endothelial cells (HUVEC, Lonza, cat. CC-2519) and human mesenchymal stem cells (hMSC, Lonza, cat. PT-2501) were purchased from Lonza (Walkersville, MD).
Cell Culture. All cells were maintained in an incubator at 37 degrees C and 5% CO2 with 95% humidity. […]

[1] = compound alone, run of 12/12/2019

| Structure (SMILES) | viability, T/C (compound 0.0316 µM) | viability, T/C (compound 0.1 µM) | viability, T/C (compound 0.316 µM) | viability, T/C (compound 1 µM) | viability, T/C (compound 3.16 µM) | viability, T/C (compound 10 µM) | IC50 (curve of compound) | viability, T/C (compound 0.003 µM) | viability, T/C (compound 0.0949 µM) | viability, T/C (compound 0.3 µM) | IC50 [1] | viability, T/C (compound 0.00949 µM) | viability, T/C (compound 0.03 µM) | viability, T/C (compound 0.949 µM) | viability, T/C (compound 3 µM) | viability, T/C (compound 94.9 pM) | viability, T/C (compound 0.0003 µM) |
| --- | --- | --- | --- | --- | --- | --- | --- | --- | --- | --- | --- | --- | --- | --- | --- | --- | --- |
| CC(C)n1c(=O)n(C)c2cnc3cc(F)c(-c4ccc(OCCCN5CCCCC5)nc4)cc3c21 | 60.1% and 96% and 88.1% | 80.2% and 82.2% and 112% | 70.4% and 78.7% and 83.2% | 73.2% and 102% and 112% | 76.8% and 85.2% and 87.2% | 56.8% and 79.3% and 85% | > 10000 nM | – | – | – | – | – | – | – | – | – | – |
| CC1COCCN1c1cc(-c2ccnn2C)c2ccnc(-c3ccn[nH]3)c2n1 (configuration not stated) | 53.9% and 67.8% and 58.9% | 40.6% and 54% and 49.9% | 29.4% and 41.8% and 36% | 29.7% and 35.6% and 33.4% | 29.8% and 38.9% and 33.5% | 32.7% and 44.9% and 37.6% | 43.1 nM and 144 nM and 71.4 nM | – | – | – | – | – | – | – | – | – | – |
| CC[C@@]1(O)C(=O)OCc2c1cc1n(c2=O)Cc2cc3c(CN(C)C)c(O)ccc3nc2-1 | – | – | – | – | – | – | – | 89.7% [middle of 10 runs] | 67.4% [middle of 10 runs] | 51.5% [middle of 10 runs] | > 300 nM and 254 nM | – | – | – | – | – | – |
| CNCc1ccc(-c2cc(-c3nc(-c4ccc(S(=O)(=O)C(C)C)cc4)cnc3N)on2)cc1 | – | – | – | – | – | – | > 3000 nM | – | 86.2% and 90.6% and 82.5% | 75.3% and 82.6% and 88.2% | – | 101% and 98.9% and 108% | 92% and 104% and 77.6% | 93% and 95.4% and 77.4% | 90.5% and 94.3% and 74.9% | – | – |
| COc1cc(C)[nH]c(=O)c1CN1CCc2c(Cl)cc(C(OC)C3COC3)c(Cl)c2C1=O (configuration not stated) | 104% and 96.2% and 98.2% | 87.7% and 103% and 84% | 89.9% and 91.7% and 80.2% | 74.3% and 84.4% and 89.6% | 93.3% and 91.8% and 102% | 82% and 96.2% and 93.1% | > 10000 nM | – | – | – | – | – | – | – | – | – | – |
| COc1cc2c(cc1O)CCNC21CSC2c3c(OC(C)=O)c(C)c4c(c3C(COC1=O)N1C(O)C3Cc5cc(C)c(OC)c(O)c5C(C21)N3C)OCO4 (configuration not stated) | – | – | – | – | – | – | – | 7.2% [middle of 10 runs] | – | – | 1.56 nM [middle of 8 runs] | – | – | – | – | 90.7% [middle of 10 runs] | 90.7% [middle of 10 runs] |
| COc1ccc([C@@H](O)c2cc(-c3ncnc4cc(N5CCOCC5)ccc34)c(F)cc2Cl)nn1 | 94.5% and 86.9% and 89% | 82% and 74.6% and 84.6% | 79.5% and 68% and 94.4% | 61.6% and 63.9% and 62.2% | 38.2% and 58.7% and 52.9% | 33.5% and 34.7% and 43.3% | 1820 nM and 3810 nM and 2700 nM | – | – | – | – | – | – | – | – | – | – |
| Cc1cc(C)c(CNC(=O)c2cc(-c3ccc(CN4CCOCC4)cc3)cc3c2cnn3C2CCCC2)c(=O)[nH]1 | 93.2% and 96.5% and 81.3% | 101% and 84.8% and 89% | 90.7% and 96.1% and 79.9% | 101% and 88.8% and 98.1% | 96.1% and 117% and 84.2% | 117% and 114% and 102% | > 10000 nM | – | – | – | – | – | – | – | – | – | – |
| Cc1sc2c(c1C)C(c1ccc(Cl)cc1)=NC(CC(=O)Nc1ccc(O)cc1)c1nnc(C)n1-2 (configuration not stated) | – | – | – | – | – | – | > 3000 nM | – | 122% and 129% and 130% | 112% and 114% and 116% | – | 106% and 134% and 101% | 114% and 110% and 109% | 86.2% and 95.3% and 76% | 75.4% and 80.9% and 64% | – | – |
